Assay results reported in patent US20180118682A1, “PHARMACEUTICAL COMPOSITION CONTAINING A TRYPTOPHAN DERIVATIVE” (Ramot at Tel-Aviv University Ltd., priority 2010, published 2018).
≈ marks a conversion by molar mass, not a printed value.

Assays:
Candida albicans = experiment: preservation of ophthalmic formulation against Candida albicans; assay type: cell-based
Source text: (§1) For testing of the long term preservation of the ophthalmic formulations with metal-containing preservatives, the pharmaceutical compositions VI of example 4 was modified by adding thiomersal in a concentration of 0.01% by weight in the aqueous formulation.

Pseudomonas aeruginosa = experiment: preservation of ophthalmic formulation against Pseudomonas aeruginosa; assay type: cell-based
Source text: as §1

Aspergillus niger = experiment: preservation of ophthalmic formulation against Aspergillus niger; assay type: cell-based
Source text: as §1

Staphylococcus aureus = experiment: preservation of ophthalmic formulation against Staphylococcus aureus; assay type: cell-based
Source text: as §1

[1] = tested on: microorganisms (e.g. bacteria and fungi); experiment: microbial preservation of ophthalmic formulations according to European and US pharmacopeia standards; assay type: cell-based; conditions: European standards (Pharmacopeia 7.0) and US-Pharmacopeia
Source text: It can be particularly difficult to preserve formulations against microorganisms (e.g. bacteria and fungi), if the formulation contains a cyclodextrin derivative.
From different tests it can be seen that a sufficient microbial preservation of ophthalmic formulations is not possible with benzalkonium chloride, cetrimide and chlorhexidine according to the European standards (Pharmacopeia 7.0) and US standards (US-Pharmacopeia).

[2] = aqueous solubility of compound (A) as a function of pH (UV-spectroscopy); assay type: physicochemical; conditions: for solubility: aqueous media, aqueous buffer, R-enantiomer used
Description: At acidic conditions, the solubility of the compound (A) is higher.
At alkaline pH-values, the solubility of the compound (A) is also better.
The solubility of the R-enantiomer of compound (A) was determined as a function of the pH-value by using UV-spectroscopy to quantify the concentration of the compound in a series of aqueous media.

[3] = octanol/water partition coefficient log P, pH-metric method (OECD draft guideline 122); assay type: physicochemical; conditions: titrated pH 1.9 to 10.9, 1.3 to 1.9 mM, various octanol/water ratios
Source text: The octanol/water partition coefficient log P of the compounds of the invention can be determined by accepted standard methods known to the person skilled in the art, such as OECD (1995), Test No. 107: Partition Coefficient (n-octanol/water): Shake Flask Method, OECD Guidelines for the Testing of Chemicals, Section 1: Physical-Chemical properties, OECD Publishing. doi: 10.1787/9789264069626-en.
The log P value may be determined according to the draft OECD guideline OECD (2000), OECD Draft guideline for the Testing of Chemicals: 122 Partition Coefficient (n-Octanol/Water): pH-Metric Method for Ionisable Substances. For Example, log P of compound (A) was investigated using OECD (2000) OECD Draft guideline for the Testing of Chemicals: 122. The sample was titrated in two triple titrations from pH 1.9 to pH 10.9 at concentrations of 1.3 to 1.9 mM in various ratios of octanol/water.

[4] = compatibility with ophthalmic excipients; assay type: physicochemical; conditions: aqueous solutions at pH 5.5
Source text: In the further series of tests, the compatibility of the compound (A) with other typical ophthalmic excipients was investigated.

[5] = equilibrium solubility in citrate buffer saline pH6 with cyclodextrins (shake flask method); assay type: physicochemical; conditions: citrate buffer saline with cyclodextrin, pH 6, aqueous with cosolvent or surfactant or cyclodextrin, thermodynamic from solid, read-out: Solubility of compound (A)
Description: The equilibrium solubility of compound (A) was tested in a citrate buffer saline at pH6 in presence of different cyclodextrins by the shake flask method.

[6] = equilibrium solubility in water at 20 °C with varying cyclodextrin content; assay type: physicochemical; conditions: thermodynamic from solid
Description: For testing the influence of the cyclodextrin content in ophthalmic formulations, the solubility of Compound (A) was tested.

[7] = tested on: retinal ganglion cell (RGC) apoptosis; experiment: rat glaucoma model (chronic ophthalmic hypertension), RGC apoptosis; assay type: in vivo, male Dark Aguti rat; conditions: low doses, intravitreal; compared to vehicle; 3 and 6 weeks after OHT induction
Description: In a male Dark Aguti rat model, glaucoma is produced by injection of hypertonic saline into episcleral veins of one eye to induce increased ophthalmic pressure (chronic ophthalmic hypertension), while the opposite eye serves as a control. In treatment groups, various doses of compound (A) of the instant invention are injected intravitreally (in […] volume) at the time of glaucoma induction and in some groups the administration continues for following 7 days to see whether such extended treatment results in increased efficacy.
The extent of retinal ganglion cell (RGC) apoptosis at 3 weeks and 6 weeks after chronic ophthalmic hypertension (OHT) induction is assessed in each animal by dynamic confocal scanning laser ophthalmoscopy and fluorescent-labeled Annexin V.
Animals are sacrificed after 3 and 6 weeks and their eyes are enucleated and fixed in 4% para-formaldehyde overnight. Afterwards, retinas are separated for assessing apoptosis related changes, for example visualized with FITC Annexin V kit (BD Biosciences, Franklin Laker (USA).

[8] = 0.001 to 0.01% by weight in the aqueous formulation
[9] = composition VI with thiomersal 0.01% by weight, after 28 days

Compound: C[CH2][Hg][S]c1ccccc1C(=O)[O-].[Na+] [thiomersal]
- activity meeting the compendia requirements (Candida albicans): sufficient activity
- duration of preservation (Candida albicans; [8]): ≥ 28 days
- reduction of organism (Candida albicans; [9]): ≥ 5 log
- activity meeting the compendia requirements (Pseudomonas aeruginosa): sufficient activity
- duration of preservation (Pseudomonas aeruginosa; [8]): ≥ 28 days
- reduction of organism (Pseudomonas aeruginosa; [9]): ≥ 5 log
- activity meeting the compendia requirements (Aspergillus niger): sufficient activity
- duration of preservation (Aspergillus niger; [8]): ≥ 28 days
- reduction of organism (Aspergillus niger; [9]): ≥ 5 log
- activity meeting the compendia requirements (Staphylococcus aureus): sufficient activity
- duration of preservation (Staphylococcus aureus; [8]): ≥ 28 days
- reduction of organism (Staphylococcus aureus; [9]): ≥ 5 log

Compound: cetrimide
- sufficient microbial preservation of ophthalmic formulations [1]: not possible

Compound: benzalkonium chloride
- sufficient microbial preservation of ophthalmic formulations [1]: not possible

Compound: C/C=C/C=C/C(=O)O [sorbic acid]
- preservation against Candida albicans (Candida albicans; 0.3% by weight instead of thiomersal in composition VI, after 14 days): insufficient preservation

Compound: CC(C)(NC(=O)C(N)Cc1c[nH]c2ccccc12)C(=O)O (stereo not drawn) [compound (A), 2-[2-Amino-3-(1H-indol-3-yl)-propionylamino]-2-methyl-propionic acid]
- solubility ([2]; pH 4.6): ~14 mg/mL (≈ 48.4 mM)
- solubility ([2]; pH 6): ~10 mg/mL (≈ 34.6 mM)
- solubility ([2]; pH 7): ~10 mg/mL (≈ 34.6 mM)
- solubility ([2]; pH 7.2): ~14 mg/mL (≈ 48.4 mM)
- solubility (in words) ([2]; at acidic conditions): higher
- solubility (in words) ([2]; at alkaline pH-values): better
- solubility (in words) ([2]; from pH 4.5 to 7): particularly low
- logP [3]: < -1
- compatibility with further components (F) (hypromellose, carbomer, Gellan gum, preservatives) [4]: no incompatibilities
- solubility ([5]; 100 mg/ml ACD (α-Cyclodextrin, Fluka)): 12.7 mg/mL (≈ 43.9 mM)
- solubility ([5]; 110 mg/ml HPBCD (Kleptose HPB, Roquette)): 27.9 mg/mL (≈ 96.4 mM)
- solubility ([5]; 110 mg/ml HPGCD (Cavasol W8 HP Pharma, ISP)): 16.2 mg/mL (≈ 56 mM)
- solubility ([5]; 110 mg/ml MBCD (Kleptose Crysmeb, Roquette)): 28.7 mg/mL (≈ 99.2 mM)
- solubility thermodynamic ([6]; water without cyclodextrin): 11.6 mg/mL (≈ 40.1 mM)
- solubility thermodynamic ([6]; water with cyclodextrin (HPBCD), aqueous with cosolvent or surfactant or cyclodextrin, water containing 65 mg/ml cyclodextrin (HPBCD)): 20.2 mg/mL
- solubility thermodynamic ([6]; water with cyclodextrin, aqueous with cosolvent or surfactant or cyclodextrin, water containing 165 mg/ml cyclodextrin): 41.2 mg/mL
- RGC apoptosis [7]: strong decrease

Compound: [H]/N=C(\N/C(=N/[H])NCCCCCCNC(=N)NC(=N)Nc1ccc(Cl)cc1)Nc1ccc(Cl)cc1 [chlorhexidine]
- sufficient microbial preservation of ophthalmic formulations [1]: not possible
